Experimental data taken from patent US20260297105A1, “RAF-MEK PROTEIN COMPLEX MODULATORS AND METHODS OF USE THEREOF” (GANDEEVA THERAPEUTICS, INC., priority 2023, published 2026).

Assays:
MEK1 = biological target: T1, MEK1 (Homo sapiens, UniProt Q02750); assay: MEK1 kinase cascade assay (ADP-Glo), inhibition of MEK1 kinase activity; assay type: biochemical; conditions: 25 nM BRAF, 6.25 nM MEK1, 0.5 μM ERK, 1 mM ATP; 20 min preincubation, 1 hr at 25° C.; read-out: BRAF ADP Glo kinase assay V3 (IC50)
T1 construct: purchased SignalChem M02-14H
T1 sequence (Q02750 whole entry): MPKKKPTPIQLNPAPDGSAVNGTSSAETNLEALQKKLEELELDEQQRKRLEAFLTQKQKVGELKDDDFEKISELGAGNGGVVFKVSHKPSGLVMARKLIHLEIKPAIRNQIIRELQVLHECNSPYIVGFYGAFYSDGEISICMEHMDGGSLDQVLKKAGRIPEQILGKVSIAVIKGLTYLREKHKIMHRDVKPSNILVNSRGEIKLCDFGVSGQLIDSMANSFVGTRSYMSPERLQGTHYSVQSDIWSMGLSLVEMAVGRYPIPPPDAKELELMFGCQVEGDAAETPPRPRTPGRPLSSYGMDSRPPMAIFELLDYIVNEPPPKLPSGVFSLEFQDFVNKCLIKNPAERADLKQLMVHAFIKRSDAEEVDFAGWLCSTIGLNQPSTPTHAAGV
T1 sequence (P15056 445-723 partner limits assumed): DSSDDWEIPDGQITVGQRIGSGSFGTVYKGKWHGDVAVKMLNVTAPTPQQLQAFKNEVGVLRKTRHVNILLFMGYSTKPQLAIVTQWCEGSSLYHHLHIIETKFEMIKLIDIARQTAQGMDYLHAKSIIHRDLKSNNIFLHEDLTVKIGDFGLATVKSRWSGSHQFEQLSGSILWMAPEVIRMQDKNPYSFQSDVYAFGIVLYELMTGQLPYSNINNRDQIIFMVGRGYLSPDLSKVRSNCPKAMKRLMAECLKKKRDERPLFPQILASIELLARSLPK
Method in brief: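 Cascade format with ADP-Glo read-out: BRAF (25 nM) and compound, 1% DMSO, 20 mins at 25° C, then MEK1 6.25 nM, ERK1 0.5 μM, ATP 1 mM for 1 hr at 25° C in HEPES pH 7.5 buffer with MgCl2, CHAPS and DTT. Percent inhibition, scaled between DMSO and 1 μM Trametinib, was fit by 4-parameter logistic to give IC50 (2 replicate wells).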

p-ERK1/2 in HCT116 cells = assay: AlphaLISA p-ERK assay, cellular inhibition of ERK phosphorylation in HCT116 cells; assay type: cell-based; conditions: Homo sapiens, HCT-116, 2 hours treatment, PMA stimulation 30 mins
Description: (§1) Cell culture: HCTI 16, HT-29, and NCI-H292 cells were acquired from American Type Culture Collection (ATCC). HCT116 and HT-29 cells were maintained in ATCC-formulated McCoy's 5a Medium Modified supplemented with 10% fetal bovine serum, NCI-H292 cells were cultured in ATCC formulated RPMI-1640 supplemented with 10% fetal bovine serum. All cells were maintained at 37° C., 5% CO2.
Efficacy of exemplary compounds in cellular inhibition of ERK phosphorylation: Phosphorylation status of ERK1/2 (p-ERK) was used as a readout for inhibition of BRAF-MEK pathway. p-ERK was detected using an immunoassay for quantitative detection of phospho-ERK 1/2 (phosphorylated on Thr202/Tyr204 in ERK1, or Thr185/Tyr187 in ERK2), such as the AlphaLISA® SureFire® Ultra™ p-ERK1/2 (Thr202/Tyr204) kit (Perkin Elmer). HCT116 cells were plated at 10,000 cells per well in 384-well TC-treated plates (Coming). Cells were plated for 24 hours, the medium was then aspirated and cells were treated with vehicle (DMSO) or test compounds (0.1% DMSO in final volume) prepared in serum free, phenol red free medium for 2 hours. Following treatment, cells were stimulated with PMA (1.25 μM/well) for 30 mins after which the medium was aspirated, and the cells were lysed for 10 mins with 1× lysis buffer supplemented with Halt Protease and Phosphatase Inhibitor Cocktail (Thermo Fisher). The lysate was transferred to a 384 well Alpha-plate (PerkinElmer) and incubated for 1 hour with acceptor bead mix followed by 1 hour incubation with donor bead mix. After incubation, the plate was read on a Cytation5 microplate reader (Agilent). % inhibition as a function of compound concentration from 3 replicate wells was fit with a 4-parameter logistic curve using GraphPad Prism or CDD Vault to derive IC50 values.
(§2) In this table, for the BRAF ADP Glo kinase assay, “A” indicates IC50 of less than 5 nM; “B” indicates IC50 of between 5 nM to 50 nM; and “C” indicates IC50 of between 50 nM to 500 nM. “D” indicates IC50 of greater than 500 nM. For the BRAF-MEK TR-FRET assay, “A” indicates EC50 of less than 50 nM; “B” indicates EC50 of between 50 nM to 200 nM; and “C” indicates EC50 of between 200 nM to 1 μM. “D′” indicates EC50 of greater than 1 μM. For the AlphaLisa P-ERK assay, “A” indicates IC50 of less than 1 nM; “B” indicates IC50 of between 1 nM to 10 nM; and “C” indicates IC50 of between 10 nM to 100 nM. “D” indicates IC50 of greater than 100 nM. For the cell viability assay, “A” indicates IC50 of less than 1 nM; “B” indicates IC50 of between 1 nM to 10 nM; and “C” indicates IC50 of between 10 nM to 100 nM. “D” indicates IC50 of greater than 100 nM.

NCI-H292 cells = assay: Cell viability assay (CellTiter-Glo), NCI-H292; assay type: cell-based; conditions: Homo sapiens, 72 hrs, read-out: Cell Viability Assay: IC50 Determination NCI-H292
Description: as §1
Efficacy of exemplary compounds in inhibition of cell viability: HCT116 and HT-29 cells were plated at 4,000 cells per well and NCI-H292 cells were plated at 2,000 cells per well in their respective media in 384-well white, TC-treated plates (Corning). After 24 hours of incubation, the cells were treated with vehicle (DMSO) or test compounds (0.1% DMSO in final volume) for 72 hrs. The plate was equilibrated at room temperature for 10 mins followed by addition of a 1:1 volume of CellTiter-Glo® reagent (Promega). The contents were mixed for 2 mins on an orbital shaker to induce lysis. The plate was incubated at room temperature for 10 mins to stabilize luminescent signal before measuring luminescence on a Cytation5 microplate reader (Agilent). % inhibition as a function of compound concentration from 3 replicate wells was fit with a 4-parameter logistic curve using GraphPad Prism or CDD Vault to derive IC50 values.
as §2

BRAF-MEK1 = assay: BRAF-MEK TR-FRET assay, stabilization of MEK1 and BRAF interaction; assay type: binding; conditions: 4 nM BRAF, 10 nM MEK, 100 μM ATP; 1 hr at 25° C.; read-out: BRAF-MEK TR-FRET Assay (EC50, fold stabilization)
Method in brief: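 Read-out is fold stabilization (treated FRET ratio/DMSO, Em 665/620 nm), fit 4-parameter for EC50 from 2 replicates. Compounds sat with 4 nM GST-BRAF and 10 nM in-house His-MEK1 1 h at 25° C (Tris pH 7.5, MgCl2, 100 μM ATP), then detection antibodies 1 h.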

| SMILES | IC50 (MEK1) [nM] | IC50 (p-ERK1/2 in HCT116 cells) [nM] | IC50 (NCI-H292 cells) [nM] | EC50 (BRAF-MEK1) [nM] |
| --- | --- | --- | --- | --- |
| CNS(=O)(=O)Nc1cccc(CN2Cc3ccc(Oc4ccccn4)cc3OC2=O)c1F [Compound 65, 3-({2-fluoro-3-[(methylsulfamoyl)amino]phenyl}methyl)-7-(pyridin-2-yloxy)-3,4-dihydro-2H-1,3-benzoxazin-2-one] | < 5 | 10 to 100 | 10 to 100 |  |
| CNS(=O)(=O)Nc1nccc(CN2C(=O)Oc3cc(Oc4cccnn4)c(F)cc3C23COC3)c1F [Compound 18, 6-fluoro-3-{[3-fluoro-2-(methylaminosulfonylamino)-4-pyridyl]methyl}-7-(3-pyridazinyloxy)-2H,3H-spiro[1,3-benzoxazine-4,3′-oxetan]-2-one] | 5 to 50 | 10 to 100 |  | < 50 |
| O=C1Oc2cc(Oc3cccnn3)ccc2C2(COC2)N1Cc1cccc(NS(=O)(=O)C2CC2)c1F [Compound 59, N-(2-fluoro-3-{[2-oxo-7-(pyridazin-3-yloxy)-2,3-dihydrospiro[1,3-benzoxazine-4,3′-oxetan]-3-yl]methyl}phenyl)cyclopropanesulfonamide] | 5 to 50 | 1 to 10 | 1 to 10 |  |
| CNS(=O)(=O)Nc1cccc(CN2C(=O)Oc3c(ccc(OC(=O)N(C)C)c3F)C23COC3)c1F [Compound 77, 8-fluoro-3-({2-fluoro-3-(methylsulfamoyl)amino]phenyl}methyl)-2-oxo-2,3-dihydrospiro[1,3-benzoxazine-4,3′-oxetan]-7-yl N,N-dimethyl carbamate] | 5 to 50 |  | < 1 | 50 to 200 |
| CNS(=O)(=O)Nc1nccc(CN2C(=O)Oc3cc(Oc4cccnn4)ccc3C23CCC3)c1F [Compound 20, 3-{[3-fluoro-2-(methylaminosulfonylamino)-4-pyridyl]methyl}-7-(3-pyridazinyloxy)-2H,3H-spiro[1,3-benzoxazine-4,1′-cyclobutan]-2-one] | < 5 | 1 to 10 |  | < 50 |
| CNS(=O)(=O)Nc1cccc(CN2C(=O)Oc3cc(OC(=O)N(C)C)ccc3C23CCC3)c1F [Compound 38, 3-({2-fluoro-3-[(methylsulfamoyl)amino]phenyl}methyl)-2-oxo-2,3-dihydrospiro[1,3-benzoxazine-4,1′-cyclobutan]-7-yl N,N-dimethylcarbamate] | < 5 |  | < 1 | < 50 |
| CNS(=O)(=O)Nc1cccc(CN2C(=O)Oc3cc(Oc4ncco4)ccc3[C@@H]2C)c1F (single isomer, unassigned) [Compound 78, (S)-3-({2-fluoro-3-(methylsulfamoyl)amino]phenyl}methyl)-4-methyl-7-(1,3-oxazol-2-yloxy)-3,4-dihydro-2H-1,3-benzoxazin-2-one or (R)-3-({2-fluoro-3-(methylsulfamoyl)amino]phenyl}methyl)-4-methyl-7-(1,3-oxazol-2-yloxy)-3,4-dihydro-2H-1,3-benzoxazin-2-one] | 5 to 50 |  | 10 to 100 | 200 to 1000 |
| CNS(=O)(=O)Nc1nccc(CN2C(=O)Oc3cc(Oc4cccnn4)ccc3[C@@H]2C)c1F (single isomer, unassigned) [Compound 22] | 5 to 50 | 10 to 100 |  | 50 to 200 |
| CN(C)C(=O)Oc1ccc2c(c1)OC(=O)N(Cc1cccc(NS(=O)(=O)N3CCC(F)C3)c1F)C2 (stereo not drawn) [Compound 113, 3-(2-fluoro-3-((3-fluoropyrrolidine)-1-sulfonamido)benzyl)-2-oxo-3,4-dihydro-2H-benzo[e][1,3]oxazin-7-yl dimethylcarbamate] | 5 to 50 |  | 1 to 10 | 200 to 1000 |
| CN(C)C(=O)Oc1ccc2c(c1)OC(=O)N(Cc1cccc(CN3CCOC3=O)c1F)C2 [Compound 21, 3-(2-fluoro-3-((2-oxooxazolidin-3-yl)methyl)benzyl)-2-oxo-3,4-dihydro-2H-benzo[e][1,3]oxazin-7-yl dimethylcarbamate] | 5 to 50 | 1 to 10 |  | 200 to 1000 |
| CNS(=O)(=O)Nc1nccc(CN2C(=O)Oc3cc(Oc4nccnn4)c(F)cc3C23CCC3)c1F [Compound 166, 6-fluoro-3-{[3-fluoro-2-(methylaminosulfonylamino)-4-pyridyl]methyl}-7-(1,2,4-triazin-3-yloxy)-2H,3H-spiro[1,3-benzoxazine-4,1′-cyclobutan]-2-one] | 5 to 50 |  | 1 to 10 | < 50 |
| CNS(=O)(=O)Nc1cccc(CN2C(=O)Oc3cc(Oc4cccnn4)ccc3C2(C)C)c1F [Compound 51, 3-({2-fluoro-3-[(methylsulfamoyl)amino]phenyl}methyl)-4,4-dimethyl-7-(pyridazine-3-yloxy)-3,4-dihydro-2H-1,3-benzoxazin-2-one] | 5 to 50 |  | 10 to 100 | 200 to 1000 |
| CNS(=O)(=O)Nc1cccc(CN2C(=O)Oc3cc(Oc4cccnn4)c(F)cc3C23CCC3)c1F [Compound 19, 6-fluoro-3-{1[2-fluoro-3-(methylaminosulfonylamino)phenyl]methyl}-7-(3-pyridazinyloxy)-2H,3H-spiro[1,3-benzoxazine-4,1′-cyclobutan]-2-one] | 5 to 50 | < 1 |  | < 50 |
| C[C@@H]1c2ccc(Oc3cccnn3)c(F)c2OC(=O)N1Cc1cccc(NS(=O)(=O)N(C)C)c1F (single isomer, unassigned) [Compound 43] | < 5 |  | 1 to 10 | < 50 |
| CN(C)C(=O)Oc1cc(F)c2c(c1)OC(=O)N(Cc1cccc(NS(=O)(=O)C3CC3)c1F)C2 [Compound 102, 3-(3-(cyclopropanesulfonamido)-2-fluorobenzyl)-5-fluoro-2-oxo-3,4-dihydro-2H-benzo[e][1,3]oxazin-7-yl dimethylcarbamate] | 5 to 50 |  | 1 to 10 | 50 to 200 |
| O=C1Oc2cc(Oc3ncco3)c(F)cc2C2(CCC2)N1Cc1ccnc(NS(=O)(=O)C2CC2)c1F [Compound 170, (cyclopropylsulfonyl)[3-fluoro-4-({6-fluoro-7-(1,3-oxazol-2-yloxy)-2-oxo-2H,3H-spiro[1,3-benzoxazine-4,1′-cyclobutan]-3-yl}methyl)-2-pyridyl]amine] | 5 to 50 |  | 10 to 100 | 200 to 1000 |
| [2H]C1([2H])c2ccc(Oc3cccnn3)cc2OC(=O)N1Cc1cccc(NS(=O)(=O)N(C)C)c1F [Compound 39, 3-{[3-(dimethylaminosulfonylamino)-2-fluorophenyl]methyl}-7-(3-pyridazinyloxy)(4,4-^2H2)-3,4-dihydro-2H-1,3-benzoxazin-2-one] | 5 to 50 |  | 1 to 10 | < 50 |
